Assay results from patent publication US8399681B2, “Substituted aminothiazolone indazoles as estrogen related receptor-alpha modulators” (Janssen Pharmaceutica NV, priority 2009, dated 2013).

Biological target: T1, ERR1 (also known as ERR-α or ERR-1) (Homo sapiens, UniProt P11474)
T1 sequence (P11474 193-421 limits assumed): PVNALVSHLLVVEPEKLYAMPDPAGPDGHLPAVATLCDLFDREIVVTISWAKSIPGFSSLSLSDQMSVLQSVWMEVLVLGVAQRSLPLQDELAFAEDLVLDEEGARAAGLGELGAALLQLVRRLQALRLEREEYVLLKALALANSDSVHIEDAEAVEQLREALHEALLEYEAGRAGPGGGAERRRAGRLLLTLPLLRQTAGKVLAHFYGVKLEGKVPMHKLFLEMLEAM
Assay: TR-FRET assay (disruption of co-activator peptide binding)
Assay type: biochemical
Conditions: 6His-tagged ERR1 LBD, GST-hSRC2 co-activator polypeptide; average of 3 independent experiments
Experimental: Time-Resolved Fluorescence Resonance Energy Transfer (TR-FRET) experiments were performed to examine the functional response of ERR1 (also known as ERR-α or ERR-1) ligands. The TR-FRET assay described herein relied on the conformation of ERR1 for binding to a co-activator peptide: when a test compound binds to ERR1 and alters its conformation, it can disrupt the binding of the co-activator peptide. The components of this homogeneous secondary assay included: the ^6His-tagged-ERR1LBD, a GST-labeled-hSRC2 co-activator polypeptide and a fluorescent donor/acceptor pair from CIS bio international htrf/bioassays (Bedford, Mass.) using both an α-GST Europium Cryptate (Eu) label and an α^6His-XL665 (allophycocyanin) fluorophore.
For TR-FRET measurements, the reaction was buffered in 25 mM Tris pH 8, 2.5 mM Hepes, 20 mM KCl, 1 mM DTT, and 0.05 mg/mL BSA (-lipids). The final concentrations of reagents were 6 nM of ERR1LBD, 6 nM GST-SRC-2 peptide, 30 nM Eu cryptate, and 7.5 nM XL665. Reactions were allowed to reach equilibrium at 25° C. for 4-18 hours before collecting data on the Analyst from LJL Biosystems (Molecular Devices Sunnyvale, Calif.). As a time-resolved method, the samples were excited at […] and emission was collected for 1 ms at both 615 and 665 nm with delays of 400 and 75 μs, respectively. Dose response curves were fitted using a hyperbolic equation and the data reported is the average of 3 independent experiments.

Row | Compound | EC50
1 | CN1CCN(C2=NC(=O)/C(=C/c3ccc4c(cnn4Cc4ccc(Cl)cc4C(F)(F)F)c3)S2)CC1 [Compound 8, 5-[1-(4-Chloro-2-trifluoromethyl-benzyl)-1H-indazol-5-ylmethylene]-2-(4-methyl-piperazin-1-yl)-thiazol-4-one] | 7 nM
2 | O=C1N=C(N2CCO[C@H](CO)C2)S/C1=C\c1ccc2c(cnn2Cc2ccc(Cl)cc2C(F)(F)F)c1 [Example 212, 5-({1-[4-Chloro-2-(trifluoromethyl)benzyl]-1H-indazol-5-yl}methylidene)-2-[2-(S)-(hydroxymethyl)morpholin-4-yl]-1,3-thiazol-4(5H)-one] | 20 nM
3 | O=C1N=C(N2CCNC[C@@H]2CO)S/C1=C\c1ccc2c(cnn2Cc2ccc(C(F)(F)F)cc2C(F)(F)F)c1 [Example 104, 5-[1-(2,4-Bis-trifluoromethyl-benzyl)-1H-indazol-5-ylmethylene]-2-(2-hydroxymethyl-piperazin-1-yl)-thiazol-4-one] | 18.2 nM
4 | COc1ccc(Cn2ncc3cc(/C=C4\SC(N5CCN[C@@H](CO)C5)=NC4=O)ccc32)c(C(F)(F)F)c1 [Example 248, 2-[3-(R)-(Hydroxymethyl)piperazin-1-yl]-5-({1-[4-methoxy-2-(trifluoromethyl)benzyl]-1H-indazol-5-yl}methylidene)-1,3-thiazol-4(5H)-one] | 14 nM
5 | CN1CCN(C2=NC(=O)/C(=C/c3ccc4c(cnn4Cc4ccc(C(F)(F)F)cc4Br)c3)S2)CC1 [Example 28, 5-[1-(2-Bromo-4-trifluoromethyl-benzyl)-1H-indazol-5-ylmethylene]-2-(4-methyl-piperazin-1-yl)-thiazol-4-one] | 59 nM
6 | O=C1N=C(N2CCO[C@H](CO)C2)S/C1=C\c1ccc2c(cnn2Cc2ncccc2C(F)(F)F)c1 [Example 281, 2-[(2S)-2-(Hydroxymethyl)morpholin-4-yl]-5-[(1-{[3-(trifluoromethyl)pyridin-2-yl]methyl}-1H-indazol-5-yl)methylidene]-1,3-thiazol-4(5H)-one] | 590 nM
7 | O=C1N=C(N2CCC(C(=O)O)CC2)S/C1=C\c1ccc2c(cnn2Cc2ccc(F)cc2C(F)(F)F)c1 [Example 176, 1-{5-[1-(4-Fluoro-2-trifluoromethyl-benzyl)-1H-indazol-5-ylmethylene]-4-oxo-4,5-dihydro-thiazol-2-yl}-piperidine-4-carboxylic acid] | 139 nM
8 | CN1CCN(C2=NC(=O)/C(=C/c3ccc4c(cnn4Cc4ccc(C(F)(F)F)cc4C(F)(F)F)c3)S2)C[C@@H]1CO [Example 195, 5-({1-[2,4-Bis(trifluoromethyl)benzyl]-1H-indazol-5-yl}methylidene)-2-[3-(R)-(hydroxymethyl)-4-methylpiperazin-1-yl]-1,3-thiazol-4(5H)-one] | 20 nM
9 | CCOCCN1CCN(C2=NC(=O)/C(=C/c3ccc4c(cnn4Cc4ccc(C(F)(F)F)cc4C(F)(F)F)c3)S2)CC1 [Example 73, 5-[1-(2,4-Bis-trifluoromethyl-benzyl)-1H-indazol-5-ylmethylene]-2-[4-(2-ethoxy-ethyl)-piperazin-1-yl]-thiazol-4-one] | 172 nM
10 | O=C1N=C(N2CCN(C(=O)C3CC3)[C@@H](CO)C2)S/C1=C\c1ccc2c(cnn2Cc2ccc(C(F)(F)F)cc2C(F)(F)F)c1 [Example 215, 5-({1-[2,4-Bis(trifluoromethyl)benzyl]-1H-indazol-5-yl}methylidene)-2-[4-(cyclopropylcarbonyl)-3-(R)-(hydroxymethyl)piperazin-1-yl]-1,3-thiazol-4(5H)-one] | 48 nM
11 | O=C1N=C(N2CCO[C@H](CO)C2)S/C1=C\c1ccc2c(c1)c(Cl)nn2Cc1ccc(C(F)(F)F)cc1C(F)(F)F [Example 184, 5-[1-(2,4-Bis-trifluoromethyl-benzyl)-3-chloro-1H-indazol-5-ylmethylene]-2-(2-(S)-hydroxymethyl-morpholin-4-yl)-thiazol-4-one] | 3 nM
12 | CC[C@H]1CN(C2=NC(=O)/C(=C/c3ccc4c(cnn4Cc4ccc(C(F)(F)F)cc4C(F)(F)F)c3)S2)CCN1 [Example 124, 5-[1-(2,4-Bis-trifluoromethyl-benzyl)-1H-indazol-5-ylmethylene]-2-(3-ethyl-piperazin-1-yl)-thiazol-4-one] | 9 nM
13 | O=C1N=C(N2C[C@H](NC(=O)C3CC3)C[C@@H]2CO)S/C1=C\c1ccc2c(cnn2Cc2ccc(C(F)(F)F)cc2C(F)(F)F)c1 [Example 260, N-{(3R,5R)-1-[5-({1-[2,4-Bis(trifluoromethyl)benzyl]-1H-indazol-5-yl}methylidene)-4-oxo-4,5-dihydro-1,3-thiazol-2-yl]-5-(hydroxymethyl)pyrrolidin-3-yl}cyclopropanecarboxamide] | 290 nM
14 | O=C1N=C(N2CCC(n3cccn3)CC2)S/C1=C\c1ccc2c(cnn2Cc2ccc(Cl)cc2C(F)(F)F)c1 [Example 157, 5-[1-(4-Chloro-2-trifluoromethyl-benzyl)-1H-indazol-5-ylmethylene]-2-(4-pyrazol-1-yl-piperidin-1-yl)-thiazol-4-one] | 35 nM
15 | O=C(O)CN1CCN(C2=NC(=O)/C(=C/c3ccc4c(cnn4Cc4ccc(Cl)cc4C(F)(F)F)c3)S2)CC1 [Example 117] | 8.3 nM
16 | CCN1CCN(C2=NC(=O)/C(=C/c3ccc4c(cnn4Cc4ccc(Cl)cc4C(F)(F)F)c3)S2)CC1 [Example 63, 5-[1-(4-Chloro-2-trifluoromethyl-benzyl)-1H-indazol-5-ylmethylene]-2-(4-ethyl-piperazin-1-yl)-thiazol-4-one] | 54 nM
17 | O=C1N=C(N2CCC[C@H](NCC(F)F)C2)S/C1=C\c1ccc2c(cnn2Cc2ccc(C(F)(F)F)cc2C(F)(F)F)c1 [Example 266, 5-({1-[2,4-Bis(trifluoromethyl)benzyl]-1H-indazol-5-yl}methylidene)-2-{(3S)-3-[(2,2-difluoroethyl)amino]piperidin-1-yl}-1,3-thiazol-4(5H)-one] | 24 nM
18 | CN1CCN(C2=NC(=O)/C(=C/c3ccc4c(cnn4Cc4ccc(Cl)cc4C(F)(F)F)c3)S2)C[C@@H]1CO [Example 196, 5-({1-[4-Chloro-2-(trifluoromethyl)benzyl]-1H-indazol-5-yl}methylidene)-2-[3-(R)-(hydroxymethyl)-4-methylpiperazin-1-yl]-1,3-thiazol-4(5H)-one] | 16 nM
19 | CC(=O)N[C@@H]1C[C@H](CO)N(C2=NC(=O)/C(=C/c3ccc4c(cnn4Cc4ccc(C(F)(F)F)cc4C(F)(F)F)c3)S2)C1 [Example 259, N-{1-[(3R,5R)-5-({1-[2,4-Bis(trifluoromethyl)benzyl]-1H-indazol-5-yl}methylidene)-4-oxo-4,5-dihydro-1,3-thiazol-2-yl]-5-(hydroxymethyl)pyrrolidin-3-yl}acetamide] | 30 nM
20 | COCCN1C[C@@H]2C[C@H]1CN2C1=NC(=O)/C(=C/c2ccc3c(cnn3Cc3ccc(Cl)cc3C(F)(F)F)c2)S1 [Example 85, 5-[1-(4-Chloro-2-trifluoromethyl-benzyl)-1H-indazol-5-ylmethylene]-2-[5-(2-methoxy-ethyl)-2S,5S-diaza-bicyclo[2.2.1]hept-2-yl]-thiazol-4-one] | 8.6 nM
21 | O=C1N=C(N2CCCO2)S/C1=C\c1ccc2c(cnn2Cc2ccc(Cl)cc2C(F)(F)F)c1 [Example 126, 5-[1-(4-Chloro-2-trifluoromethyl-benzyl)-1H-indazol-5-ylmethylene]-2-isoxazolidin-2-yl-thiazol-4-one] | 24 nM
22 | COC[C@@H]1CN(C2=NC(=O)/C(=C/c3ccc4c(cnn4Cc4ccc(Cl)cc4C(F)(F)F)c3)S2)CCO1 [Example 235, 5-({1-[4-Chloro-2-(trifluoromethyl)benzyl]-1H-indazol-5-yl}methylidene)-2-[2-(S)-(methoxymethyl)morpholin-4-yl]-1,3-thiazol-4(5H)-one] | 5 nM
23 | O=C1N=C(N2CCC(c3nnn[nH]3)CC2)S/C1=C\c1ccc2c(cnn2Cc2ccc(Cl)cc2C(F)(F)F)c1 [Example 110, 5-[1-(4-Chloro-2-trifluoromethyl-benzyl)-1H-indazol-5-ylmethylene]-2-[4-(1H-tetrazol-5-yl)-piperidin-1-yl]-thiazol-4-one] | 18.6 nM
24 | O=C1CN(C2=NC(=O)/C(=C/c3ccc4c(cnn4Cc4ccc(Cl)cc4C(F)(F)F)c3)S2)CCN1 [Compound 12, 4-{5-[1-(4-Chloro-2-trifluoromethyl-benzyl)-1H-indazol-5-ylmethylene]-4-oxo-4,5-dihydro-thiazol-2-yl}-piperazin-2-one] | 4.6 nM
25 | O=C1N=C(N2CCC[C@H](C(=O)O)C2)S/C1=C\c1ccc2c(cnn2Cc2ccc(C(F)(F)F)cc2C(F)(F)F)c1 [Example 37, 1-{5-[1-(2,4-Bis-trifluoromethyl-benzyl)-1H-indazol-5-ylmethylene]-4-oxo-4,5-dihydro-thiazol-2-yl}-piperidine-3-(S)-carboxylic acid] | 5.3 nM
